{"source": "patent US20210308211A1", "about": "“METHOD OF TREATING VIRAL INFECTIONS” (priority 2020, published 2021)", "key": {"MRL/lpr mice": {"tested_on": "MRL/lpr mice", "experiment": "Survival analysis in MRL/lpr lupus mice", "assay_type": "in vivo, mouse", "conditions": "female MRL/lpr mice, intravenous, 20 mice per group; NaCl control 25 weeks", "protocol": "It has been determined that this mouse strain carries a mutation in the fas gene. Also, the MRL/lpr is a useful model to study behavioural and cognitive deficits found in autoimmune diseases and the efficacy of immunosuppressive agents [Monneaux et al., 2003, Eur. J. Immunol. 33, 287-296].\nFive-week-old female MRL/lpr mice received P140 or peptide P140(MO) intravenously as described (Monneaux et al., 2003, Eur. J. Immunol. 33, 287-296). All experimental protocols were carried out with the approval of the local Institutional Animal Care and Use Committee (CREMEAS). As control, mice were injected with NaCl.\nTwenty mice were used for each peptide or NaCl.\nStatistical tests were performed using GraphPad Prism version 5.0. The two-way ANOVA test was used to analyze statistical significance of proteinuria differences between control and peptide-treated groups of mice. Survival of control and P140 analogue-treated female MRL/lpr mice was analyzed by the Kaplan-Meier method, and the significance of differences was determined by the log-rank test. For the other variables, statistical significance was assessed using the Student's t-test. p values less than 0.05 were considered significant."}, "HSC70 protein": {"biological_target": "T1, HSC70 protein (Bos taurus, UniProt P19120)", "T1 construct": "purchased Stressgen", "T1 sequence (P19120 whole entry)": "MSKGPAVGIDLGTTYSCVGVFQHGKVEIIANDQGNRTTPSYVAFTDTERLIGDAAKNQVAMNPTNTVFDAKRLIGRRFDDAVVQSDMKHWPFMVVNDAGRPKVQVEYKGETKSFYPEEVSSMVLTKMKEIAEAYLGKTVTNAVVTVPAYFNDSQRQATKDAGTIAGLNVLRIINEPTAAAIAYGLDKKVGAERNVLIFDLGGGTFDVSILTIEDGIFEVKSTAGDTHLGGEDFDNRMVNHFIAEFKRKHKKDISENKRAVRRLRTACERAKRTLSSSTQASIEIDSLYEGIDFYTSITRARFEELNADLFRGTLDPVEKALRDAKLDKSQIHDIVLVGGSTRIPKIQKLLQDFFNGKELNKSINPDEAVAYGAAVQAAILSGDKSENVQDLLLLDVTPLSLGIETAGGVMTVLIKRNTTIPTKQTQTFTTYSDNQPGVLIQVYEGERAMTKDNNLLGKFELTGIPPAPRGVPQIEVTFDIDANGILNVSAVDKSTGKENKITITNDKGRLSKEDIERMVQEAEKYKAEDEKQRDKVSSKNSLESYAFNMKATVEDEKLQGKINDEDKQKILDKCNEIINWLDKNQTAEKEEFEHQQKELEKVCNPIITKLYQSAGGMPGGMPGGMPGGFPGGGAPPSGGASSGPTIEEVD", "experiment": "BIAcore binding of peptides to immobilized HSC70", "set-up": "species or system bovine", "protocol": "BIAcore 3000 system (Biacore AB) was used to evaluate the binding of P140 peptides to HSC70 protein (Page et al., 2009, and 2011). Sensor chip CM5, surfactant P20, amine coupling kit containing N-hydroxysuccinimide (NHS) and N-ethyl-N′-dimethylaminopropyl carbodiimide (EDC), 2-(2-pyridinyldithio)ethaneamine (PDEA) and ethanolamine were from Biacore AB. Biosensor assays were performed with HBS-EP buffer as running buffer (10 mM HEPES, 150 mM NaCl, 3 mM EDTA, 0.005% surfactant P20, pH 7.4). The compounds were diluted in the running buffer. The sensor chip surface was regenerated after each experiment by injecting 10 μL of 10 mM HCl. Recombinant bovine HSC70 (Stressgen) was immobilized on flow cells of a CM5 sensor chip through its thiol groups using 35 μL PDEA in 50 mM borate buffer, pH 8.3 on the NHS/EDC-activated matrix. Then, 35 μL of HSC70 (100 μg/mL in formate buffer, pH 4.3) were injected until a response of 13,000 response units (RU) corresponding to 13 ng/mm^2 of HSC70 was immobilized. Twenty μL of a 50 mM cysteine/1 M NaCl solution was used to saturate unoccupied sites on the chip. The direct binding measurement of P140 peptides to HSC70 was carried out at 25° C. with a constant flow rate of 20 μL/min. P140 peptide and analogues were injected in the flux at different concentrations for 3 min, followed by a dissociation phase of 3 min. The kinetic parameters were calculated using the BIAeval 3.1 software on a personal computer. Analysis was performed using the simple 1:1 Langmuir binding model. The specific binding profiles were obtained after subtracting the response signal from the control empty channel and from blank-buffer injection. The fitting to each model was judged by the χ^2 value and randomness of residue distribution compared to the theoretical model."}, "CD4+ T splenocytes": {"tested_on": "CD4+ T splenocytes", "experiment": "Collagen-induced arthritis (CIA) DBA/1 mice, ex vivo T splenocyte proliferation with CII (CFSE, FACS)", "assay_type": "in vivo, mouse", "protocol": "Next, P140 peptide was administered in a model of mice that develop a RA-like disease (we anticipated to use this mouse model as a negative control of MRL/lpr-lupus prone mice). This model, called collagen-induced arthritis (CIA) mouse model, is the most commonly studied autoimmune model of RA. In this model, autoimmune arthritis is induced by immunizing DBA/1 mice with an emulsion of complete Freund's adjuvant (CFA) and type II collagen (CII), and typically, the first signs of arthritis appear in 21-28 days after immunization (Brand et al., 2007). CIA shares several pathological features with human RA, and CII is a major protein in cartilage, the target tissue of RA. Pathological features include synovial hyperplasia, mononuclear cell infiltration, and cartilage degradation. Susceptibility in these mice is linked to the expression of specific MHC class II genes, DBA/1 have H-2^q haplotype.\nP140 peptide was thus administrated intravenously to DBA/1 mice at day −1, +7, +14 and +20 in a setting close to the one we used in MRL/lpr mice (100 μg/injection/mouse). CII in CFA was injected at days +1 and +21 (200 μg, intradermal route). Mouse weight and their clinical score were followed using very classical procedure. Biological parameters were also evaluated (i.e. T cell response, antibody response, joint histology, etc)."}, "Raji cells": {"tested_on": "Raji cells", "experiment": "Cellular uptake of fluorescent P140 in Raji cells (flow cytometry)", "assay_type": "cell-based, human", "conditions": "fluorescent peptide in 10% trehalose compared with 5.4% mannitol", "description": "FIG. 8. Cellular uptake of fluorescent P140 peptide in 5.4% mannitol or 10% trehalose in MRL/lpr B cells and Raji cells as visualized by flow cytometry. B cells were from 12-14 week-old MRL/lpr mice (primary cells); Raji cells are an established cell line derived in 1963 from B-lymphocyte of a patient with Burkitt's lymphoma.\nFor P140 peptide activity, HSC70 binding and endocytosis appear to be important. It is believed that endocytosis must occur through the clathrin route. This implies that peptide+excipient should have a size in the range of 30 to 500 nm in diameter. For example P140+mannitol are in the 100 nm region whereas P140+trehalose are below 10 nm and therefore not effective binding to HSC70. […] B cells were from 12-14 week-old MRL/lpr mice (primary cells); Raji cells are an established cell line derived in 1963 from B-lymphocyte of a patient with Burkitt's lymphoma. […] The confocal images show the late endosomal compartment where P140 localizes before homing into lysosomes; DAPI identifies DNA."}, "C57BL/6 mice": {"tested_on": "C57BL/6 mice", "experiment": "DSS-induced colonic inflammation model", "assay_type": "in vivo, mouse", "description": "Normal mice (C57BL/6; 7 week-old; males) have received the P140 peptide ([…], iv route; 10 mice) or saline only (control group; 10 mice) at days −2 and −1. At day 0, dextran sodium sulfate (DSS; 2-3%) was administrated to induce the disease.\nAnimals were examined every day for body weight loss, stool consistency, diarrhea, and blood in the feces. The animals were sacrificed around day 14 or at any time if they are very sick (loss >25% body weight). Statistics: Mann-Whitney (exact)"}}, "note": "Non-standard residues stand in square brackets, D forms with d. Residues, ends and D or L forms follow the SMILES beside them. pS = N[C@@H](COP(=O)(O)O)C(=O)O", "data": [{"smiles": "CC[C@H](C)[C@H](NC(=O)[C@H](Cc1ccccc1)NC(=O)[C@H](C)NC(=O)[C@H](Cc1ccc(O)cc1)NC(=O)CNC(=O)[C@H](CCCNC(=N)N)NC(=O)[C@@H]1CCCN1C(=O)[C@H](CCCCN)NC(=O)CNC(=O)[C@H](COP(=O)(O)O)NC(=O)[C@H](CCCNC(=N)N)NC(=O)[C@H](CCCCN)NC(=O)[C@H](CO)NC(=O)[C@H](Cc1ccc(O)cc1)NC(=O)[C@@H](NC(=O)[C@H](CCSC)NC(=O)[C@H](Cc1c[nH]cn1)NC(=O)[C@@H](NC(=O)[C@@H](N)CCCNC(=N)N)[C@@H](C)CC)C(C)C)C(=O)N[C@@H](CCC(=O)O)C(=O)N[C@@H](Cc1ccc(O)cc1)C(=O)O", "note": "[Compound P140] (H-RIHMVYSKR[pS]GKPRGYAFIEY-OH; N-terminus and C-terminus assumed)", "values": [{"measurement": "Median survival", "setting": "MRL/lpr mice", "value": 29, "unit": "weeks"}, {"measurement": "Rmax (RU)", "setting": "HSC70 protein; 25° C., 1:1 Langmuir model", "value": 83.3, "unit": "RU"}, {"measurement": "kon", "setting": "HSC70 protein; 25° C., 1:1 Langmuir model, analyte 1.56-25 μM, read-out: ka", "value": 450, "unit": "M⁻¹ s⁻¹"}, {"measurement": "Affinity for HSC70, oxidized vs non-oxidized peptide (in words)", "setting": "HSC70 protein; P140 compared with P140 M(O)", "value": "not statistically different"}, {"measurement": "Req (RU)", "setting": "HSC70 protein; peptide 1.56 μM", "value": 15.3, "unit": "RU"}, {"measurement": "Req (RU)", "setting": "HSC70 protein; peptide 3.12 μM", "value": 25.8, "unit": "RU"}, {"measurement": "Req (RU)", "setting": "HSC70 protein; peptide 6.25 μM", "value": 39.5, "unit": "RU"}, {"measurement": "Req (RU)", "setting": "HSC70 protein; peptide 12.5 μM", "value": 53.6, "unit": "RU"}, {"measurement": "Req (RU)", "setting": "HSC70 protein; peptide 25 μM", "value": 65.2, "unit": "RU"}, {"measurement": "kobs", "setting": "HSC70 protein; peptide 25 μM", "value": 0.0144, "unit": "s⁻¹"}, {"measurement": "CD4+ T splenocytes proliferation", "setting": "CD4+ T splenocytes; DBA/1 CIA mice, 100 μg/injection i.v. day −1, +7, +14, +20, ex vivo 100 μg CII/mL", "value": "strongly diminished"}, {"measurement": "CD8+ T cells proliferation", "setting": "CD4+ T splenocytes; same conditions as CD4+ T cells", "value": "No effect"}, {"measurement": "Cellular uptake (flow cytometry)", "setting": "Raji cells", "value": "Much less cellular uptake"}, {"measurement": "DAI", "setting": "C57BL/6 mice; P140 i.v. days −2 and −1 vs saline, p=0.5386", "value": "Little difference"}, {"measurement": "Colon size", "setting": "C57BL/6 mice; P140 i.v. days −2 and −1 vs saline, reflects decrease of inflammation, p=0.0011", "value": "significant increase"}, {"measurement": "Body weight", "setting": "C57BL/6 mice; between the two groups", "value": "No difference"}, {"measurement": "Day at which blood appeared in the feces", "setting": "C57BL/6 mice; control groups day +6", "value": "+8 day"}]}]}
